# Reference: US20060040870A1, “Enhancement of apoptosis by caspase-9 inhibitors” (priority 2004, published 2006)
# The star is where a group is joined. Cbz = O=C(OCc1ccccc1)*; CH2F = FC*
# How the values were obtained:
# leukemic cell lines = test: Staurosporine response of panel of leukemic cell lines, Annexin V; format: cell-based; details: staurosporine plus 50 μM C9i; leukemic cells that responded to C9i alone
# Experimental: FIG. 4 is a pair of graphs showing the effect of […] on various cell lines, as determined by Annexin V staining and flow cytometry. The cells included the B-cell precursor ALL cell lines […], and NALM-6, the RAMOS, RAJI, and DAUDI Burkitt lymphoma cell lines, the CCRF-CEM, JURKAT, and H9 T lymphoma cell lines, the K-562 erythroleukemia cell line, and resting or activated (i.e., CD3/CD28 cross-linked) normal human T cells. […] Flow cytometry. Quantitation of apoptotic events was conducted using a FACS Calibur (BD Immunocytometry Systems). All analyses were conducted on cells with lymphoid light scatter characteristics (i.e., low to medium forward scatter and low 90° side scatter). iii. Annexin V. […] Cells were stained according to the manufacturers recommendations. The inventors expanded their analysis of […] to other leukemic cell lines. […] The JURKAT T lymphoma cell line was also sensitive. In contrast, the RAJI and DAUDI Burkitt lymphoma cell lines, the H9 T lymphoma cell line, and the K-562 erythroleukemia cell line were insensitive to […]. […] The inventors also tested whether […] would potentiate the apoptotic effect of the widely used serine/threonine kinase inhibitor staurosporine. […] Thus, the leukemic cell lines were generally responsive to both […] and staurosporine, or responsive to neither.
# [1] = test system: CCRF-CEM T lymphoma cell line; test: Apoptosis by Annexin V staining and flow cytometry, CCRF-CEM; format: cell-based; details: 50 μM, 18 hours
# Experimental: (§1) FIG. 4 is a pair of graphs showing the effect of […] on various cell lines, as determined by Annexin V staining and flow cytometry. The cells included the B-cell precursor ALL cell lines […], and NALM-6, the RAMOS, RAJI, and DAUDI Burkitt lymphoma cell lines, the CCRF-CEM, JURKAT, and H9 T lymphoma cell lines, the K-562 erythroleukemia cell line, and resting or activated (i.e., CD3/CD28 cross-linked) normal human T cells. […] Flow cytometry. Quantitation of apoptotic events was conducted using a FACS Calibur (BD Immunocytometry Systems). All analyses were conducted on cells with lymphoid light scatter characteristics (i.e., low to medium forward scatter and low 90° side scatter). iii. Annexin V. […] Cells were stained according to the manufacturers recommendations.
# [2] = test system: RAMOS Burkitt lymphoma cell line; test: Apoptosis by Annexin V staining and flow cytometry, RAMOS; format: cell-based, human; details: 50 μM, 18 hours
# CD33+ myeloid cells = test: Annexin V staining of sorted cord blood-derived CD33+ myeloid cells removed from MS-5 stroma; format: cell-based, human; details: cultured 18 hours, DMSO control 27.9 ± 3.9, Time 0 <10
# [3] = test system: caspase-9-deficient cells (BLIN-4L, RAMOS); test: Annexin V apoptosis in caspase-9 siRNA-treated BLIN-4L and RAMOS cells; format: cell-based, human; details: BLIN-4L and RAMOS electroporated with caspase-9 siRNA, 50 μM, 8 hours
# Experimental: This technology employs a double algorithm. […] In preliminary studies using FITC-conjugated control siRNA (Dharmacon), we determined that the BLIN cell lines could be transfected to >80% efficiency by electroporation. […] BLIN-4L were then diluted into 4.8 ml of X-VIVO 10 supplemented with 10% FBS and 5 ng/ml of IL-7.
# The inventors performed further studies to determine whether caspase-9 can be completely knocked out by means of RNA interference (RNAi). […] The inventors discovered that C9i induces apoptosis in caspase-9-deficient cells. BLIN-4L (FIG. 7A) and RAMOS (FIG. 7B) cells were electroporated with 8 μM SMARTpool (Dharmacon Inc.) caspase-9 siRNA or control siRNA and allowed to recover for 3 days in X-VIVO/10% FCS supplemented with 5 ng/ml IL-7 (BLIN-4L), or RPMI/10% FCS (RAMOS). After 3 days, the electroporated populations were assayed for Annexin V binding (to determine background levels of apoptosis), and then cultured in DMSO or 50 μM C9i for 8 hours. The cells were then harvested, stained with Annexin V, and analyzed by flow cytometry. […] Thus, no caspase-9 was present at all in the cells. […] Thus, C9i clearly is acting on another molecule in the cell besides just caspase-9. Also, one can conclude that caspase-9 is not necessary for C9i-induced apoptosis to occur.
# BLIN-4L cells = test: Apoptosis by Annexin V staining and flow cytometry, BLIN-4L; format: cell-based, human; details: 50 μM
# Experimental: Flow cytometry. Quantitation of apoptotic events was conducted using a FACS Calibur (BD Immunocytometry Systems). All analyses were conducted on cells with lymphoid light scatter characteristics (i.e., low to medium forward scatter and low 90° side scatter).
# iii. Annexin V. FITC-labeled Annexin V (BD Pharmingen, San Diego, Calif.) was used to detect external phosphatidylserine residues appearing on the external surface of early apoptotic cells (Koopman Blood. 1994;84:1415-1420). Cells were stained according to the manufacturers recommendations.
# General experimental strategy. BLIN cell lines were removed from fibroblast monolayers, washed once and resuspended to 7.5×10^5/ml in X-VIVO 10. Two hundred μL of resuspended cells were added to 96-well flat-bottom microtiter plates (ISC Bioexpress, Kaysville, Vt.), followed by 0.5-1.0 μL of caspase inhibitors in DMSO. An identical volume of DMSO alone was added to separate wells as a vehicle control. This final DMSO concentration of 0.25-0.5% vol/vol had no adverse affect on any of the BLIN cell lines. At the indicated times the entire content of individual wells was harvested and stained in the fluorescent protocols described above.
# The inventors carried out experiments to test the influence of specific amino acid substitutions on the proapoptotic activity Z-LEHD-fmk. […]
# NALM-6 cells = test: Apoptosis by Annexin V staining and flow cytometry, NALM-6; format: cell-based; details: NALM-6, 50 μM, 18 hours
# Experimental: as §1
# [4] = test system: JURKAT T lymphoma cell line; test: Apoptosis by Annexin V staining and flow cytometry, JURKAT; format: cell-based; details: 50 μM, 18 hours
# Experimental: as §1
substance,measurement,setting,value
Z-LEHD-fmk (Cbz-LEHD-CH2F; SMILES CC(C)C[C@H](NC(=O)OCc1ccccc1)C(=O)N[C@@H](CCC(=O)O)C(=O)N[C@@H](Cc1c[nH]cn1)C(=O)N[C@@H](CC(=O)O)C(=O)CF) [C9i],potentiation of the apoptotic effect of staurosporine,leukemic cell lines,enhanced the staurosporine response
same,sensitivity (fold-increase in Annexin V+ cells vs DMSO),[1],extremely sensitive
same,sensitivity (fold-increase in Annexin V+ cells vs DMSO),[2],extremely sensitive
same,"percentage of total Annexin V+ cells (PI+ and PI−), mean ± SD",CD33+ myeloid cells,22.3 ± 1.2%
same,induction of apoptosis in caspase-9-deficient cells (Annexin V),[3],still induced apoptosis
same,apoptosis (Annexin V and TMRE staining) versus DMSO vehicle,"BLIN-4L cells; BLIN-4L removed from adherent fibroblasts, 2-hour time points up to 8 hours","promoted apoptosis in BLIN-4L, albeit not as pronounced as in BLIN-3"
same,sensitivity (fold-increase in Annexin V+ cells vs DMSO),"BLIN-4L cells; BLIN-4L, 18 hours",sensitive
same,sensitivity (fold-increase in Annexin V+ cells vs DMSO),NALM-6 cells,sensitive
same,sensitivity (fold-increase in Annexin V+ cells vs DMSO),[4],sensitive
